The values that follow are results of earlier work, collected in patent US20070225340A1, “Phenyl Compounds And Their Use In The Treatment Of Conditions Mediated By The Action Of Pge2 At The Ep1 Receptor” (Glaxo Group Limited, priority 2004, published 2007).

In data set [1] the target is T1, EP1 receptor (Rattus norvegicus, UniProt P70597).
T1 sequence (P70597 1-405): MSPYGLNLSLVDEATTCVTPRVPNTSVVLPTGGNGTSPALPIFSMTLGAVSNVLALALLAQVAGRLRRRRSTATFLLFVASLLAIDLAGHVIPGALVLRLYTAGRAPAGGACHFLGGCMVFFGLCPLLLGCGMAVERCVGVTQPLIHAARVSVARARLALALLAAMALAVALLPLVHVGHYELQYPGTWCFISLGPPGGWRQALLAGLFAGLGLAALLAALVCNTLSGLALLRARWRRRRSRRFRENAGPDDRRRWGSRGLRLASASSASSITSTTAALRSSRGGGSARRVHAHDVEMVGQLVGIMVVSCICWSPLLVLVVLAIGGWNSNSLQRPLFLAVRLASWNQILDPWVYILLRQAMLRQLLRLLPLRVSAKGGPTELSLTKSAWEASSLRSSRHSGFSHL
The arrangement: host or cells: living rat (in vivo pain model). The note with it: chronic constriction injury, Anesthesia and Analgesia 2001, 93, 1012-7.

Data set [2] concerns the target T1, EP1 receptor. The arrangement: host or cells: living rodent (in vivo pain model). The settings on record: rodent, post-operative pain; Anesthesia and Analgesia 2001, 92, 233-238.

Structures are written as SMILES.

As for `Cc1cc(Cl)ccc1S(=O)(=O)NC[C@H]1C2CCC(CC2)[C@@H]1/C=C\CCCC(=O)O` [ONO-8711], the “effect on hyperalgesia and allodynia” value in data set [1] was “reduces hyperalgesia and allodynia”. For the same compound, in data set [2], the “effect on mechanical hyperalgesia” value is reported as “inhibits mechanical hyperalgesia”.
